From ChEMBL document CHEMBL4028813, “Inhibitors of protein arginine deiminases and their efficacy in animal models of multiple sclerosis” (Bioorg Med Chem, 2017)
Each block holds one compound with its values, some of them ahead of it. Activity calls are given as the source filed them. The calls are words filed in the database; no cut-off is given here.

Legend:
[1] = biological target: Protein-arginine deiminase type-2 (Mus musculus) (UniProt Q08642); experiment: Inhibition of full length recombinant mouse N-terminal GST-tagged PAD2 expressed in baculovirus infected Sf9 cells up to 10 mM using benzoyl arginine ethyl ester as substrate preincubated for 30 mins followed by substrate addition measured after 30 mins by colorimetric assay
Chain of Protein-arginine deiminase type-2 (Mus musculus) (Q08642 whole entry): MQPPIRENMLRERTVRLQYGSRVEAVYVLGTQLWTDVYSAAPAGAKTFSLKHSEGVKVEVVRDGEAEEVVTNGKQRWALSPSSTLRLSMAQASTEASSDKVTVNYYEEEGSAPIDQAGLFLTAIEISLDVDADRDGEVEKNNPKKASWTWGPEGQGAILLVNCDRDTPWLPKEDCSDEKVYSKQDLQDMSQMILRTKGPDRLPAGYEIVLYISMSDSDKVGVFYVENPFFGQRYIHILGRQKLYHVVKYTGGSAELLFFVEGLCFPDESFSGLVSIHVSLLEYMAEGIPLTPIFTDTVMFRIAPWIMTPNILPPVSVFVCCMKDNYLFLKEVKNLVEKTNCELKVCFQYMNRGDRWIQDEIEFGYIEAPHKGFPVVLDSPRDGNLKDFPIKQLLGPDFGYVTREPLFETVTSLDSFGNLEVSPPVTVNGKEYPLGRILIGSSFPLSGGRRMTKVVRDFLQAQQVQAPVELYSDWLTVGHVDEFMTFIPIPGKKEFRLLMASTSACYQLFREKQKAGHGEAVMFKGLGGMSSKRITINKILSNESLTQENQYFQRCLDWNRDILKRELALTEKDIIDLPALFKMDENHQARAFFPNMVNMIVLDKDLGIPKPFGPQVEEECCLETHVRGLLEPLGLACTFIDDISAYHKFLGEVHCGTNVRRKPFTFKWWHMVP

[2] = biological target: T1, Protein-arginine deiminase type-4 (Homo sapiens, UniProt Q9UM07); experiment: Inhibition of full length recombinant human N-terminal GST-tagged PAD4 expressed in baculovirus infected Sf9 cells up to 10 mM using benzoyl arginine ethylester as substrate preincubated for 30 mins followed by substrate addition measured after 30 mins by colorimetric assay
T1 sequence (Q9UM07 whole entry): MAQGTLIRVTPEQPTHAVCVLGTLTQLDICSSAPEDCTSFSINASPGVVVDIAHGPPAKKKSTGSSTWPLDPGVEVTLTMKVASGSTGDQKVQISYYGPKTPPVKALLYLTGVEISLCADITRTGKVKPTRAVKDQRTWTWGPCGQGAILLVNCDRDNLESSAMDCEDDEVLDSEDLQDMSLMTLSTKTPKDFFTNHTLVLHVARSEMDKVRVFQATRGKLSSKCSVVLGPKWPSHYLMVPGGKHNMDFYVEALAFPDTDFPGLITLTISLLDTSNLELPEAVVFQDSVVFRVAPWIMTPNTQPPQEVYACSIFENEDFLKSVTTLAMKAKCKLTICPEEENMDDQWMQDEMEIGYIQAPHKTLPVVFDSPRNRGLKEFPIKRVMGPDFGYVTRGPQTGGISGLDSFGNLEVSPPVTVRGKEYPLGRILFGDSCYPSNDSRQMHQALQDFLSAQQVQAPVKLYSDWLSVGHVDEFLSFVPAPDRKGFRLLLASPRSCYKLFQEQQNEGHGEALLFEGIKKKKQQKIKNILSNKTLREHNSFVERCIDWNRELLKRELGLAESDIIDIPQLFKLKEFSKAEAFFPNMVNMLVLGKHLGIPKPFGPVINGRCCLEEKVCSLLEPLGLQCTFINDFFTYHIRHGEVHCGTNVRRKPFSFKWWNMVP

[3] = biological target: T2, Protein-arginine deiminase type-1 (Homo sapiens) (UniProt Q9ULC6); experiment: Inhibition of human PAD1 up to 10 mM using benzoyl arginine ethylester as substrate preincubated for 30 mins followed by substrate addition measured after 30 mins by colorimetric assay
T2 sequence (whole entry): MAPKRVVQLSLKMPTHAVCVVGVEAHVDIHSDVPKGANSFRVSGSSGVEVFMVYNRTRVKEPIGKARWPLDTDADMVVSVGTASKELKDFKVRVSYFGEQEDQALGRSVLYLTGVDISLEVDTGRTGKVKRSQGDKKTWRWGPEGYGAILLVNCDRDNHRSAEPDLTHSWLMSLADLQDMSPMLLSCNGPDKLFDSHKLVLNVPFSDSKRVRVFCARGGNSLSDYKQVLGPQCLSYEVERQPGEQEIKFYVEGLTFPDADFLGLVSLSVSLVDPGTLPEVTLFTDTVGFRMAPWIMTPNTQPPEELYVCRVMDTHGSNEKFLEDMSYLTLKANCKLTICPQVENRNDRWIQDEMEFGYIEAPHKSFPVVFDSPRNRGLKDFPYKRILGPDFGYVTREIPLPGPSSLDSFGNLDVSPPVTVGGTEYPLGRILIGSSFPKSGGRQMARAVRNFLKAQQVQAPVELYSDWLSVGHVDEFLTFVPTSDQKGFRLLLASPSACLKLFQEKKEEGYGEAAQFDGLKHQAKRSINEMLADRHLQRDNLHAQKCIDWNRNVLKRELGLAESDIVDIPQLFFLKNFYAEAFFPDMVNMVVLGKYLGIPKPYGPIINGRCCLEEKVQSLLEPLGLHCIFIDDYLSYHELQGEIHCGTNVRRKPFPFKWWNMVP

[4] = biological target: T3, Protein-arginine deiminase type-1 (Homo sapiens, UniProt Q9ULC6); experiment: Inhibition of human PAD1 using BAEE as substrate preincubated for 30 mins followed by substrate addition measured after 30 mins by colorimetric assay
T3 sequence (Q9ULC6 whole entry): T2 sequence (whole entry)

[5] = biological target: Protein-arginine deiminase type-2 (Mus musculus, UniProt Q08642); experiment: Inhibition of full length recombinant mouse N-terminal GST-tagged PAD2 expressed in baculovirus infected Sf9 cells using benzoyl arginine ethyl ester as substrate preincubated for 30 mins followed by substrate addition measured after 30 mins by colorimetric assay
Chain of Protein-arginine deiminase type-2 (Q08642 whole entry): as the sequence (Q08642 whole entry) above

[6] = biological target: T1, Protein-arginine deiminase type-4; experiment: Inhibition of full length recombinant human N-terminal GST-tagged PAD4 expressed in baculovirus infected Sf9 cells using benzoyl arginine ethylester as substrate preincubated for 30 mins followed by substrate addition measured after 30 mins by colorimetric assay
Mus musculus [7] = experiment: Antiinflammatory activity in MOG peptide/complete freund's adjuvant/pertussis toxin-induced C57BL/6 mouse autoimmune encephalomyelitis model assessed as improvement in physical disability at 100 mg/kg, ip administered once daily for 40 days measured daily during compound dosing; assay type: functional, organism-based
Mus musculus [8] = experiment: Toxicity in MOG peptide/complete freund's adjuvant/pertussis toxin-induced C57BL/6 mouse autoimmune encephalomyelitis model assessed as change in body weight at 100 mg/kg, ip administered once daily for 40 days measured during compound dosing; assay type: organism-based; conditions: in vivo, 960 h
Mus musculus [9] = experiment: (§1) Antiinflammatory activity in MOG peptide/complete freund's adjuvant/pertussis toxin-induced C57BL/6 mouse autoimmune encephalomyelitis model assessed as reduction in accumulation of CD3 positive cells in brain at 100 mg/kg, ip administered once daily for 40 days measured post last dose; assay type: functional, organism-based
Mus musculus [10] = experiment: Antiinflammatory activity in MOG peptide/complete freund's adjuvant/pertussis toxin-induced C57BL/6 mouse autoimmune encephalomyelitis model assessed as reduction in accumulation of MAC3 positive cells in brain at 100 mg/kg, ip administered once daily for 40 days measured post last dose; assay type: functional, organism-based
[11] = Toxicity in MOG peptide/complete freund's adjuvant/pertussis toxin-induced C57BL/6 mouse autoimmune encephalomyelitis model assessed as death at 100 mg/kg, ip administered once daily for 40 days measured during compound dosing (reference value: 21%); assay type: organism-based; conditions: in vivo, read-out: Activity
Mus musculus [12] = experiment: as §1, with “inflammatory lesions” for “accumulation of CD3 positive cells”, “dose by hematoxylin and eosin/Luxol-fast blue staining based assay” for “dose”; assay type: functional, organism-based
Mus musculus [13] = experiment: Toxicity in MOG peptide/complete freund's adjuvant/pertussis toxin-induced C57BL/6 mouse autoimmune encephalomyelitis model assessed as change in body weight at 50 mg/kg, ip administered once daily for 40 days measured during compound dosing; assay type: organism-based; conditions: in vivo, 960 h
[14] = Toxicity in MOG peptide/complete freund's adjuvant/pertussis toxin-induced C57BL/6 mouse autoimmune encephalomyelitis model assessed as death at 50 mg/kg, ip administered once daily for 40 days measured during compound dosing (reference value: 20%); assay type: organism-based; conditions: in vivo, read-out: Activity
Mus musculus [15] = experiment: (§2) Antiinflammatory activity in MOG peptide/complete freund's adjuvant/pertussis toxin-induced C57BL/6 mouse autoimmune encephalomyelitis model assessed as increase in myelin content at 100 mg/kg, ip administered once daily for 40 days measured post last dose by LFB /H and E staining based assay; assay type: functional, organism-based
Mus musculus [16] = experiment: as §2, with “activity” for “activity in”, “reduction” for “increase”, “scar tissue around blood vessels in brain” for “myelin content”, “LFB/H” for “LFB /H”; assay type: functional, organism-based
[17] = Elimination rate constant in C57BL/6 mouse brain at 100 mg/kg, ip administered as single dose by UPLC-MS analysis; assay type: ADME, organism-based
[18] = Elimination rate constant in C57BL/6 mouse serum at 100 mg/kg, ip administered as single dose by UPLC-MS analysis; assay type: ADME, organism-based
[19] = AUC (0 to 360 mins) in C57BL/6 mouse serum at 100 mg/kg, ip administered as single dose by UPLC-MS analysis; assay type: ADME, organism-based; design: time < 6 hr, dose 100 mg/kg, route intraperitoneal
Mus musculus [20] = experiment: Neuroprotective activity in CPZ-induced demyelination C57BL/6 mouse model assessed as increase in myelin content at 100 mg/kg, ip dosed daily for 6 weeks measured post last dose by LFB staining based immunohistochemical method; assay type: functional, organism-based
[21] = Half life in C57BL/6 mouse serum at 100 mg/kg, ip administered as single dose by UPLC-MS analysis; assay type: ADME, organism-based
[22] = Cmax in C57BL/6 mouse serum at 100 mg/kg, ip administered as single dose by UPLC-MS analysis; assay type: ADME, organism-based; design: dose 100 mg/kg, route intraperitoneal
[23] = Tmax in C57BL/6 mouse serum at 100 mg/kg, ip administered as single dose by UPLC-MS analysis; assay type: ADME, organism-based
[24] = Half life in C57BL/6 mouse brain at 100 mg/kg, ip administered as single dose by UPLC-MS analysis; assay type: ADME, organism-based
[25] = Cmax in C57BL/6 mouse brain at 100 mg/kg, ip administered as single dose by UPLC-MS analysis; assay type: ADME, organism-based; design: dose 100 mg/kg, route intraperitoneal
[26] = Tmax in C57BL/6 mouse brain at 100 mg/kg, ip administered as single dose by UPLC-MS analysis; assay type: ADME, organism-based
[27] = AUC (0 to 360 mins) in C57BL/6 mouse brain at 100 mg/kg, ip administered as single dose by UPLC-MS analysis; assay type: ADME, organism-based; design: dose 100 mg/kg, time < 6 hr, route intraperitoneal
Mus musculus [28] = experiment: Antiinflammatory activity in MOG peptide/complete freund's adjuvant/pertussis toxin-induced C57BL/6 mouse autoimmune encephalomyelitis model assessed as improvement in physical disability at 50 mg/kg, ip administered once daily for 40 days measured daily during compound dosing; assay type: functional, organism-based
Mus musculus [29] = experiment: Antiinflammatory activity in ip dosed MOG peptide/complete freund's adjuvant/pertussis toxin-induced C57BL/6 mouse autoimmune encephalomyelitis model assessed as improvement in physical disability administered once daily for 40 days measured daily during compound dosing; assay type: functional, organism-based

Structure (SMILES): CC1(C)NC(=O)N(CCn2cncc2CO)C1=O
inhibition [1]: inactive | inhibition [2]: inactive | inhibition [3]: inactive

Structure (SMILES): CC1(C)NC(=O)N(CN2CCNCC2)C1=O
Ki [5]: 179 µM | Ki [6]: 183 µM | Ki [4]: 445 µM | Activity (Mus musculus [7]): Active | Activity (Mus musculus [8]): Non-Toxic

Structure (SMILES): CC1(C)NC(=O)N(CCc2nnn[nH]2)C1=O
Ki [5]: 30 µM | Ki [4]: 384 µM | Activity (Mus musculus [7]): Active | Activity (Mus musculus [9]): Active | Activity (Mus musculus [10]): Active | mortality at 960 h [11]: 8% | Activity (Mus musculus [12]): Active | Activity (Mus musculus [8]): Non-Toxic

Structure (SMILES): Cc1cnc(C)n1CCN1C(=O)NC(C)(C)C1=O
inhibition [1]: inactive | inhibition [2]: inactive | inhibition [3]: inactive

Structure (SMILES): CC1(C)NC(=O)N(CCN2CCCC2)C1=O
Ki [6]: 4640 µM | inhibition [1]: inactive | inhibition [3]: inactive

Structure (SMILES): CC1(C)NC(=O)N(CCn2ccnc2)C1=O
Ki [5]: 4620 µM | Ki [6]: 632 µM | Activity (Mus musculus [7]): Active | Activity (Mus musculus [13]): Non-Toxic | mortality at 960 h [14]: 29% | Activity (Mus musculus [9]): Active | Activity (Mus musculus [10]): Active | Activity (Mus musculus [15]): Active | Activity (Mus musculus [16]): Active | k el [17]: 0.000117 s⁻¹ | k el [18]: 0.000917 s⁻¹ | AUC(0-t) at 6 h [19]: 28000 ng·h/mL | Activity (Mus musculus [20]): Active | half-life [21]: 12.6 min | Cmax [22]: 79900 ng/mL | Tmax [23]: 5 min | half-life [24]: 99 min | Cmax [25]: 7.3 ng/mL | Tmax [26]: 45 min | AUC(0-t) at 6 h [27]: 12.3 ng·h/mL | inhibition [3]: inactive | Activity (Mus musculus [28]): inactive | mortality at 960 h [11]: 0% | Activity (Mus musculus [29]): Dose-dependent effect | Activity (Mus musculus [12]): Active | Activity (Mus musculus [8]): Non-Toxic

Structure (SMILES): CC(C)c1nccn1CCN1C(=O)NC(C)(C)C1=O
inhibition [1]: inactive | inhibition [2]: inactive | inhibition [3]: inactive

Results, then the compound that gave them:

inhibition [1]: inactive | inhibition [2]: inactive | inhibition [3]: inactive
Structure (SMILES): CC1(C)NC(=O)N(CCn2cncn2)C1=O

Ki [4]: 2420 µM | inhibition [1]: inactive | inhibition [2]: inactive
Structure (SMILES): Cc1nccn1CCN1C(=O)NC(C)(C)C1=O

Ki [5]: 714 µM | inhibition [2]: inactive | inhibition [3]: inactive
Structure (SMILES): CC1(C)NC(=O)N(CCN2CCNCC2)C1=O

inhibition [1]: inactive | inhibition [2]: inactive | inhibition [3]: inactive
Structure (SMILES): CC1(C)NC(=O)N(CCn2ccnn2)C1=O

Ki [6]: 1430 µM | Ki [4]: 602 µM
Structure (SMILES): CC1(C)NC(=O)N(CCN2CCOCC2)C1=O

inhibition [1]: inactive | inhibition [2]: inactive | inhibition [3]: inactive
Structure (SMILES): CN1CCN(CCN2C(=O)NC(C)(C)C2=O)CC1

inhibition [1]: inactive | inhibition [2]: inactive | inhibition [3]: inactive
Structure (SMILES): Cc1cn(CCN2C(=O)NC(C)(C)C2=O)cn1
